4 compounds from BindingDB's records for doi:10.1021/jm990336n (Boehringer Ingelheim Pharmaceuticals, 2000) can be followed below.

For this experiment, the target named is T1, Dimer of Gag-Pol polyprotein [489-587] (Human immunodeficiency virus 1, UniProt P12497).
T1 construct: 489-587
As to the kind of experiment: Protease Inhibition Assay. The conditions noted are these: pH 5.5; 37 °C. How it is done:
Sensitivity of HIV-1 protease activity to protease inhibitors was determined by a peptide substrate cleavage assay. Cleavage products and substrate were separated by reversed-phase HPLC on a Perkin-Elmer 3 X 3CR C8 column.
As a reminder, the IC50 is the concentration needed to halve the response being measured. The low end stands for higher potency, the high end for lower potency. In turn, `CC(C)[C@H](NC(=O)c1ccc2ccccc2n1)C(=O)N[C@@H](Cc1ccccc1)[C@H](O)CN1CC[C@@H](OCc2ccncc2)C[C@H]1C(=O)NC(C)(C)C` showed an IC50 of 4 nM.

For `CC(C)(C)NC(=O)[C@@H]1C[C@H](OCc2ccncc2)CCN1C[C@@H](O)[C@H](Cc1ccccc1)NC(=O)CCCc1ccccc1` [(2S,4R)-N-tert-butyl-1-[(2R,3S)-2-hydroxy-4-phenyl-3-(4-phenylbutanamido)butyl]-4-(pyridin-4-ylmethoxy)piperidine-2-carboxamide], the IC50 was greater than 20000 nM.

In turn, `CC(C)(C)NC(=O)[C@@H]1C[C@H](OCc2ccncc2)CCN1C[C@@H](O)[C@H](Cc1ccccc1)NC(=O)O[C@H]1CCOC1` [(3S)-oxolan-3-yl N-[(2S,3R)-4-[(2S,4R)-2-(tert-butylcarbamoyl)-4-(pyridin-4-ylmethoxy)piperidin-1-yl]-3-hydroxy-1-phenylbutan-2-yl]carbamate] gave an IC50 of 260 nM.

`CC(C)CN(C[C@@H](O)[C@H](Cc1ccccc1)NC(=O)O[C@H]1CCOC1)S(=O)(=O)c1ccc(N)cc1` [VX-478] gave an IC50 of 2.6 nM.
